Experimental data reported in ChEMBL document CHEMBL1201861, “Genomics of Drug Sensitity in Cancer screening data, Wellcome Trust Sanger Institute”.

Tests used:
Test in all cases: cells
Format in all cases: functional, cell-based
Conditions in all cases: Homo sapiens
IST-MEL1 = system: IST-MEL1;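 also: growth inhibition of the cell line, read out with a cell viability assay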
Description: SANGER: Inhibition of human IST-MEL1 cell growth in a cell viability assay.

COLO-800 = system: COLO-800;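 also: growth inhibition of COLO-800 cells, read out with a cell viability assay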
Description: SANGER: Inhibition of human COLO-800 cell growth in a cell viability assay.

A4-Fuk = system: A4-Fuk;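 also: growth inhibition of A4-Fuk cells, read out by a cell viability assay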
Description: SANGER: Inhibition of human A4-Fuk cell growth in a cell viability assay.

KARPAS-299 = system: KARPAS-299
Description: SANGER: Inhibition of human KARPAS-299 cell growth in a cell viability assay.

LU-139 = system: LU-139
Description: SANGER: Inhibition of human LU-139 cell growth in a cell viability assay.

MPP-89 = system: MPP-89;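 also: growth inhibition of human MPP-89 cells, read out with a cell viability assay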
Description: SANGER: Inhibition of human MPP-89 cell growth in a cell viability assay.

BV-173 = system: BV-173
Description: SANGER: Inhibition of human BV-173 cell growth in a cell viability assay.

VA-ES-BJ = system: VA-ES-BJ;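 also: growth inhibition of the VA-ES-BJ cell line, read out by a cell viability assay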
Description: SANGER: Inhibition of human VA-ES-BJ cell growth in a cell viability assay.

LB771-HNC = system: LB771-HNC;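 also: growth inhibition of LB771-HNC human cells, read out with a cell viability assay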
Description: SANGER: Inhibition of human LB771-HNC cell growth in a cell viability assay.

NCI-H69 = system: NCI-H69;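 also: growth inhibition of the cell line, read out with a cell viability assay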
Description: SANGER: Inhibition of human NCI-H69 cell growth in a cell viability assay.

SW684 = system: SW684;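 also: growth inhibition of human SW684 cells, measured by a cell viability assay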
Description: SANGER: Inhibition of human SW684 cell growth in a cell viability assay.

TE-11 = system: TE-11;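 also: growth inhibition of human TE-11 cells, read out by a cell viability assay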
Description: SANGER: Inhibition of human TE-11 cell growth in a cell viability assay.

NB6 = system: NB6;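 also: growth inhibition of NB6 cells, read out by a cell viability assay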
Description: SANGER: Inhibition of human NB6 cell growth in a cell viability assay.

CTB-1 = system: CTB-1
Description: SANGER: Inhibition of human CTB-1 cell growth in a cell viability assay.

PSN1 = system: PSN1;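 also: suppression of growth of human PSN1 cells, read out by a cell viability assay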
Description: SANGER: Inhibition of human PSN1 cell growth in a cell viability assay.

NOMO-1 = system: NOMO-1;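 also: growth inhibition of human NOMO-1 cells measured by a cell viability assay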
Description: SANGER: Inhibition of human NOMO-1 cell growth in a cell viability assay.

KGN = system: KGN;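 also: growth inhibition of KGN cells, read out with a cell viability assay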
Description: SANGER: Inhibition of human KGN cell growth in a cell viability assay.

SW872 = system: SW872;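 also: growth inhibition of SW872 cells, read out by a viability assay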
Description: SANGER: Inhibition of human SW872 cell growth in a cell viability assay.

A3-KAW = system: A3-KAW;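 also: growth inhibition of human A3-KAW cells, read out with a cell viability assay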
Description: SANGER: Inhibition of human A3-KAW cell growth in a cell viability assay.

DJM-1 = system: DJM-1;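 also: growth inhibition of human DJM-1 cells, read out by a cell viability assay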
Description: SANGER: Inhibition of human DJM-1 cell growth in a cell viability assay.

no-10 = system: no-10;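 also: growth inhibition of no-10 cells, read out with a cell viability assay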
Description: SANGER: Inhibition of human no-10 cell growth in a cell viability assay.

CW-2 = system: CW-2;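 also: growth inhibition of CW-2 cells, read out by a cell viability assay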
Description: SANGER: Inhibition of human CW-2 cell growth in a cell viability assay.

HCC2218 = system: HCC2218;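 also: cell viability assay read-out, with IC50 given as the concentration that inhibits growth of the cell line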
Description: SANGER: Inhibition of human HCC2218 cell growth in a cell viability assay.

NCI-H446 = system: NCI-H446;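 also: growth inhibition of NCI-H446 cells determined by a cell viability assay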
Description: SANGER: Inhibition of human NCI-H446 cell growth in a cell viability assay.

COLO-824 = system: COLO-824
Description: SANGER: Inhibition of human COLO-824 cell growth in a cell viability assay.

TE-9 = system: TE-9;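 also: cell growth inhibition, measured with a cell viability readout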
Description: SANGER: Inhibition of human TE-9 cell growth in a cell viability assay.

CTV-1 = system: CTV-1;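 also: growth inhibition of the cell line, read out with a cell viability assay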
Description: SANGER: Inhibition of human CTV-1 cell growth in a cell viability assay.

ETK-1 = system: ETK-1;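 also: growth inhibition of human ETK-1 cells, read out with a cell viability assay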
Description: SANGER: Inhibition of human ETK-1 cell growth in a cell viability assay.

LOX IMVI = system: LOX IMVI
Description: SANGER: Inhibition of human LOXIMVI cell growth in a cell viability assay.

ACN = system: ACN;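 also: growth inhibition of the human ACN cell line, read out via cell viability testing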
Description: SANGER: Inhibition of human ACN cell growth in a cell viability assay.

TE-8 = system: TE-8;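 also: growth inhibition of TE-8 cells, measured with a cell viability readout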
Description: SANGER: Inhibition of human TE-8 cell growth in a cell viability assay.

ES5 = system: ES5;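 also: growth inhibition of human ES5 cells, read out by a cell viability assay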
Description: SANGER: Inhibition of human ES5 cell growth in a cell viability assay.

DU-4475 = system: DU-4475
Description: SANGER: Inhibition of human DU-4475 cell growth in a cell viability assay.

HT = system: HT
Description: SANGER: Inhibition of human HT cell growth in a cell viability assay.

NCI-H82 = system: NCI-H82;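 also: growth inhibition of NCI-H82 cells, measured with a cell viability readout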
Description: SANGER: Inhibition of human NCI-H82 cell growth in a cell viability assay.

ES7 = system: ES7;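 also: growth inhibition of cultured human ES7 cells, read out as cell viability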
Description: SANGER: Inhibition of human ES7 cell growth in a cell viability assay.

LB2241-RCC = system: LB2241-RCC;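 also: cell viability assay measuring how strongly the cultured human renal carcinoma line is prevented from growing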
Description: SANGER: Inhibition of human LB2241-RCC cell growth in a cell viability assay.

OS-RC-2 = system: OS-RC-2;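 also: growth inhibition of human OS-RC-2 cells, measured by a cell viability assay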
Description: SANGER: Inhibition of human OS-RC-2 cell growth in a cell viability assay.

RXF 393 = system: RXF 393;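 also: growth inhibition of human RXF 393 cells, read out with a cell viability assay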
Description: SANGER: Inhibition of human RXF393 cell growth in a cell viability assay.

EW-3 = system: EW-3;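 also: cell viability assay read-out, IC50 reflects inhibition of growth of the EW-3 cells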
Description: SANGER: Inhibition of human EW-3 cell growth in a cell viability assay.

NCI-H226 = system: NCI-H226;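 also: cell viability read-out used to gauge growth inhibition of the cells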
Description: SANGER: Inhibition of human NCI-H226 cell growth in a cell viability assay.

LC-2-ad = system: LC-2-ad;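 also: growth inhibition of human LC-2-ad cells, read out with a cell viability assay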
Description: SANGER: Inhibition of human LC-2-ad cell growth in a cell viability assay.

TE-1 = system: TE-1;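 also: growth inhibition of the human TE-1 cell line, read out with a cell viability assay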
Description: SANGER: Inhibition of human TE-1 cell growth in a cell viability assay.

TE-5 = system: TE-5;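 also: inhibition of cell growth, read out by a cell viability assay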
Description: SANGER: Inhibition of human TE-5 cell growth in a cell viability assay.

K562 = system: K562
Description: SANGER: Inhibition of human K-562 cell growth in a cell viability assay.

BE-13 = system: BE-13;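 also: growth inhibition of human BE-13 cells, measured with a cell viability assay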
Description: SANGER: Inhibition of human BE-13 cell growth in a cell viability assay.

MFM-223 = system: MFM-223
Description: SANGER: Inhibition of human MFM-223 cell growth in a cell viability assay.

NOS-1 = system: NOS-1;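 also: growth inhibition of the human NOS-1 cell line, read out with a cell viability assay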
Description: SANGER: Inhibition of human NOS-1 cell growth in a cell viability assay.

NCI-H1092 = system: NCI-H1092;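 also: cell growth inhibition measured with a cell viability assay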
Description: SANGER: Inhibition of human NCI-H1092 cell growth in a cell viability assay.

D-502MG = system: D-502MG
Description: SANGER: Inhibition of human D-502MG cell growth in a cell viability assay.

SCH = system: SCH;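 also: growth inhibition of human SCH cells, read out in a cell viability assay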
Description: SANGER: Inhibition of human SCH cell growth in a cell viability assay.

SW 954 = system: SW 954;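 also: growth inhibition of SW954 human cancer cells, read out as cell viability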
Description: SANGER: Inhibition of human SW954 cell growth in a cell viability assay.

LXF-289 cell line = system: LXF-289 cell line
Description: SANGER: Inhibition of human LXF-289 cell growth in a cell viability assay.

KG-1 = system: KG-1;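 also: growth inhibition of KG-1 cells, read out by a cell viability assay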
Description: SANGER: Inhibition of human KG-1 cell growth in a cell viability assay.

NKM-1 = system: NKM-1;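 also: growth inhibition of NKM-1 cells, read out with a cell viability assay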
Description: SANGER: Inhibition of human NKM-1 cell growth in a cell viability assay.

HAL-01 = system: HAL-01;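 also: growth inhibition of human HAL-01 cells, read out with a cell viability assay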
Description: SANGER: Inhibition of human HAL-01 cell growth in a cell viability assay.

TGBC1TKB = system: TGBC1TKB;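 also: growth inhibition of TGBC1TKB cells, read out by a cell viability assay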
Description: SANGER: Inhibition of human TGBC1TKB cell growth in a cell viability assay.

BB49-HNC = system: BB49-HNC;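 also: cell viability assay read-out, reported as inhibition of BB49-HNC cell growth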
Description: SANGER: Inhibition of human BB49-HNC cell growth in a cell viability assay.

SK-MEL-2 = system: SK-MEL-2;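 also: growth inhibition of human SK-MEL-2 cells measured with a cell viability assay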
Description: SANGER: Inhibition of human SK-MEL-2 cell growth in a cell viability assay.

LS-513 = system: LS-513
Description: SANGER: Inhibition of human LS-513 cell growth in a cell viability assay.

COLO-829 = system: COLO-829
Description: SANGER: Inhibition of human COLO-829 cell growth in a cell viability assay.

NCI-H2126 = system: NCI-H2126;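 also: growth inhibition of the cancer cell line, determined with a cell viability readout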
Description: SANGER: Inhibition of human NCI-H2126 cell growth in a cell viability assay.

CC(=O)c1c(C)c2cnc(Nc3ccc(N4CCNCC4)cn3)nc2n(C2CCCC2)c1=O [PALBOCICLIB] gave an IC50 (IST-MEL1) of over 4000 nM, an IC50 (COLO-800) of 898 nM and an IC50 (A4-Fuk) of over 4000 nM. The IC50 (KARPAS-299) was over 4000 nM, the IC50 (LU-139) was over 4000 nM and the IC50 (MPP-89) was over 4000 nM. The IC50 (BV-173) was 652 nM, the IC50 (VA-ES-BJ) was 732 nM and the IC50 (LB771-HNC) was over 4000 nM. It also gave an IC50 (NCI-H69) of over 4000 nM, an IC50 (SW684) of over 4000 nM and an IC50 (TE-11) of 1050 nM. The IC50 (NB6) was 2400 nM, the IC50 (CTB-1) was 405 nM and the IC50 (PSN1) was over 4000 nM. The IC50 (NOMO-1) was over 4000 nM, the IC50 (KGN) was 2820 nM and the IC50 (SW872) was 1980 nM. It also gave an IC50 (A3-KAW) of 1080 nM, an IC50 (DJM-1) of over 4000 nM and an IC50 (no-10) of over 4000 nM. It also gave an IC50 (CW-2) of over 4000 nM, an IC50 (HCC2218) of 2350 nM and an IC50 (NCI-H446) of over 4000 nM. It also gave an IC50 (COLO-824) of over 4000 nM, an IC50 (TE-9) of over 4000 nM and an IC50 (CTV-1) of 2530 nM. It also gave an IC50 (ETK-1) of 3050 nM, an IC50 (LOX IMVI) of 1910 nM and an IC50 (ACN) of over 4000 nM. For the same compound, the IC50 (TE-8) was 1420 nM, the IC50 (ES5) was 753 nM and the IC50 (DU-4475) was over 4000 nM. It also gave an IC50 (HT) of over 4000 nM, an IC50 (NCI-H82) of over 4 µM and an IC50 (ES7) of 273 nM. The IC50 (LB2241-RCC) was 1190 nM, the IC50 (OS-RC-2) was 522 nM and the IC50 (RXF 393) was 813 nM. The IC50 (EW-3) was 809 nM, the IC50 (NCI-H226) was over 4000 nM and the IC50 (LC-2-ad) was over 4000 nM. It also gave an IC50 (TE-1) of over 4000 nM, an IC50 (TE-5) of over 4000 nM and an IC50 (K562) of over 4 µM. The IC50 (BE-13) was 444 nM, the IC50 (MFM-223) was over 4000 nM and the IC50 (NOS-1) was over 4000 nM. The IC50 (NCI-H1092) was over 4000 nM, the IC50 (D-502MG) was over 4000 nM and the IC50 (SCH) was over 4000 nM. The IC50 (SW 954) was 929 nM, the IC50 (LXF-289 cell line) was over 4000 nM and the IC50 (KG-1) was 1270 nM. For the same compound, the IC50 (NKM-1) was 412 nM, the IC50 (HAL-01) was 606 nM and the IC50 (TGBC1TKB) was over 4000 nM. It also gave an IC50 (BB49-HNC) of over 4000 nM, an IC50 (SK-MEL-2) of over 4000 nM and an IC50 (LS-513) of over 4000 nM.
Work on Cn1c(=O)n(-c2ccc(C(C)(C)C#N)cc2)c2c3cc(-c4cnc5ccccc5c4)ccc3ncc21 [DACTOLISIB] yielded an IC50 (IST-MEL1) of 18.8 nM, an IC50 (COLO-800) of 32.9 nM and an IC50 (A4-Fuk) of 46.5 nM. It also gave an IC50 (KARPAS-299) of 1790 nM, an IC50 (LU-139) of 7.77 nM and an IC50 (MPP-89) of 25.3 nM. The IC50 (BV-173) was 23.9 nM, the IC50 (VA-ES-BJ) was 17.8 nM and the IC50 (LB771-HNC) was 286 nM. For the same compound, the IC50 (NCI-H69) was 427 nM, the IC50 (SW684) was 196 nM and the IC50 (TE-11) was 56 nM. It also gave an IC50 (COLO-829) of 296 nM, an IC50 (NB6) of 397 nM and an IC50 (CTB-1) of 24.7 nM. It also gave an IC50 (PSN1) of 44.4 nM, an IC50 (NOMO-1) of 45.9 nM and an IC50 (KGN) of 56.3 nM. The IC50 (SW872) was 64.6 nM, the IC50 (A3-KAW) was 28.6 nM and the IC50 (DJM-1) was 340 nM. It also gave an IC50 (no-10) of 201 nM, an IC50 (CW-2) of 270 nM and an IC50 (HCC2218) of 6.61 nM. It also gave an IC50 (NCI-H446) of 95.1 nM, an IC50 (COLO-824) of 689 nM and an IC50 (TE-9) of 1130 nM. For the same compound, the IC50 (CTV-1) was 32.8 nM, the IC50 (ETK-1) was 7.88 nM and the IC50 (LOX IMVI) was 15 nM. The IC50 (ACN) was 81.8 nM, the IC50 (TE-8) was 66.5 nM and the IC50 (ES5) was 14.7 nM. It also gave an IC50 (DU-4475) of 9.44 nM, an IC50 (HT) of 41 nM and an IC50 (NCI-H82) of over 2 µM. The IC50 (ES7) was 18.1 nM, the IC50 (LB2241-RCC) was 14 nM and the IC50 (OS-RC-2) was 16.5 nM. The IC50 (RXF 393) was 21.4 nM, the IC50 (NCI-H226) was 708 nM and the IC50 (LC-2-ad) was 159 nM. It also gave an IC50 (TE-1) of 223 nM, an IC50 (TE-5) of 46.8 nM and an IC50 (K562) of over 2 µM. For the same compound, the IC50 (BE-13) was 31.8 nM, the IC50 (MFM-223) was 132 nM and the IC50 (NOS-1) was 30.1 nM. For the same compound, the IC50 (NCI-H1092) was 145 nM, the IC50 (D-502MG) was 106 nM and the IC50 (SCH) was 67.1 nM. It also gave an IC50 (SW 954) of 234 nM, an IC50 (LXF-289 cell line) of 26 nM and an IC50 (KG-1) of 84.2 nM. For the same compound, the IC50 (NKM-1) was 54.8 nM, the IC50 (HAL-01) was 55.8 nM and the IC50 (TGBC1TKB) was 23.1 nM. It also gave an IC50 (BB49-HNC) of 174 nM, an IC50 (SK-MEL-2) of 76.7 nM and an IC50 (LS-513) of 141 nM. For the same compound, the IC50 (NCI-H2126) was 148 nM.
